One series deals with T1, YhfI (Bacillus subtilis, UniProt O07607).
T1 construct: recombinant, homodimer
Briefly: HPLC cleavage assay. In kind it is biochemical. Conditions: Mg2+, Mn2+, pH 7.5, 37 °C.

The next series has as its target T2, PycTIR (Burkholderia cepacia, UniProt A0A0J5WTU0).
T2 sequence (A0A0J5WTU0 1-303): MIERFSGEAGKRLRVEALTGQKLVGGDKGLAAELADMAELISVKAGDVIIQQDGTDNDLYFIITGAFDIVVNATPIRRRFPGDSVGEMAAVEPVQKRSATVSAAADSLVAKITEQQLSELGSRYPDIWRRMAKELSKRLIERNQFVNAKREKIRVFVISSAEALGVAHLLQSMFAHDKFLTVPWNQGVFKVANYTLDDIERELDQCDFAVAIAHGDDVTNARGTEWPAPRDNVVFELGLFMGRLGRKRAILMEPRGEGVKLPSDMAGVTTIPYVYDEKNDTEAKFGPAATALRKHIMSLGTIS
Briefly: fluorescent NADase activation assay. Conditions: 500 µM ε-NAD, pH 7.5, room temperature. In kind it is biochemical.

Series [1] concerns the molecule itself. Briefly: crystal structure; hanging-drop crystals grown at 18 °C from purified protein (10 mg/ml, 20 mM HEPES-KOH pH 7.5, 80 mM KCl, 1 mM TCEP); homodimer seen in the crystal structures.

T1 sequence (O07607 whole entry): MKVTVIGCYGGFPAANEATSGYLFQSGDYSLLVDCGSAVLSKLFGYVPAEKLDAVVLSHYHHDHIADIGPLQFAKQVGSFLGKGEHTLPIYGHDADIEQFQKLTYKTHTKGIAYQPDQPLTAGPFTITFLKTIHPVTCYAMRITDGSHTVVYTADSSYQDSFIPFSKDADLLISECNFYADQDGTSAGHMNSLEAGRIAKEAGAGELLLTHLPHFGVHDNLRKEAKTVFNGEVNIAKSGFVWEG

For `Nc1nc2c(ncn2[C@@H]2O[C@@H]3COP(=O)(O)O[C@H]3[C@H]2O)c(=O)[nH]1` [cGMP], the HPLC cleavage assay result at YhfI is listed as “exhibited a strong preference for cAMP/cGMP over cCMP/cUMP cleavage”.

As for `O=c1ccn([C@@H]2O[C@@H]3COP(=O)(O)O[C@H]3[C@H]2O)c(=O)[nH]1` [cUMP], the “fluorescent NADase activation assay” value on PycTIR (activator) is listed as “cUMP-dependent activation of the Pycsar NADase effector PycTIR”.

Consider `NC(=O)c1ccc[n+]([C@@H]2O[C@H](COP(=O)(O)OP(=O)(O)OC[C@H]3O[C@@H](n4cnc5c4ncn4ccnc54)[C@H](O)[C@@H]3O)[C@@H](O)[C@H]2O)c1` [ε-NAD], for which the “fluorescent NADase activation assay” value on PycTIR (cUMP as activator) is on record as “Release of fluorescent substrate from an NAD^+ analogue incubated with the Pycsar effector PycTIR”.

B1: Paenibacillus xerothermodurans Apyc1 (enzyme)
chain: SLQIQMIGTGSAFAKKFYNNNALVKCNGFQLLIDCGVTAPRALHELGVPITGIDGILITHIHADHVGGIEEFAFRLKYKYGMTIKLFVPAALVNPLWDHSLRGGLENKAEGLEQLADYFDVVALEEAVVHEIHPGLTVELVRSQHIAGKASYSLLLNNLLFYSSDARFNYAQLVELSTSGRCKYILHDCQLAEPAAVHATLNELLTLPEAVQEMIMLMHYDDEMEQFIGKSGKMSFMQQHKTYSFTEAT
notes: Apyc1 homologue (MBL-fold class II phosphodiesterase) of Paenibacillus xerothermodurans; also called P. xerothermodurans Apyc1; Paenibacillus Apyc1; source: E. coli BL21(DE3) RIL, purified (Ni-NTA, Superdex 75 SEC); not shown: 6×His-SUMO2 or 6×His-MBP-SUMO2, N-terminal, cleaved
For the molecule B1, the stoichiometry N (in general, a count of units in the complex or per binding partner) in series [1] is 2.

B2: Apyc1 from the phage Bsp38 (enzyme)
chain: MLHTTQIRMVGTGSAFSKKFYNNSALVTFTNGYNLLIDCGHSVPKGLHDADIPLESIDGILITHTHADHIGGLEEVALYNKFVLGGRKIDLLVPNTLVESLWENSLKGGLRYSDTYDDLSLSDYFTVRSLKTFTSGAARTQLEENIAIKLYPTFHVSHMASYAVGLEDRGEDKVFYSSDTIFDEYLIDYALTYSWVFHDCQFFTGGVHASLDELLNYIPEEDQDRVFLMHYGDNMEDFFTKTGRMRFALQGRTYIL
notes: Anti-Pycsar protein Apyc1 (MBL-fold class II phosphodiesterase) of phage Bsp38; The SUMO2 tag was cleaved with SENP2; also called Bsp38 Apyc1; source: E. coli BL21(DE3) RIL, purified (Ni-NTA, Superdex 75 SEC); not shown: 6×His-SUMO2 or 6×His-MBP-SUMO2, N-terminal, cleaved
For the molecule B2, in series [1], the “stoichiometry N” value stood at 2.

B3: Paenibacillus J14 Apyc1 (enzyme)
chain: ALRLQMLGTGGAFAKKYFNNNALLYAGDFTLLIDCGITAPLALHTIGKSVEEIDAVLITHIHGDHVGGLEELAFRRKFGSGRKPILYIAENLVEPLWENTLKGGLSQDGVIHSLNDVFDVRLLKESEPAQLAPELKVELIRTPHIPGKPSYSLYINDEIFYSADMTFEPELLMRLVRERGCRRIFHEVQLTGKGEVHTTLQELLSLPTEIQSQILLKHYSDDMESFRGATGNMDFLRQHEVYTL
modifications: selenomethionine-labelled
notes: Apyc1 homologue (MBL-fold class II phosphodiesterase) of Paenibacillus J14, GenBank WP_028539944.1; Crystallised with a hydrolysis-resistant phosphorothioate analogue of cAMP; also called P. J14 Apyc1; Paenibacillus Apyc1; source: E. coli BL21(DE3) RIL, selenomethionine-labelled, purified (Ni-NTA, Superdex 75 SEC); not shown: 6×His-SUMO2 or 6×His-MBP-SUMO2, N-terminal, cleaved
As for B3, the “stoichiometry N” value in series [1] is 2.
